This note sets out measurements from ChEMBL document CHEMBL3992492, “Sulfoximines from a Medicinal Chemist's Perspective: Physicochemical and in vitro Parameters Relevant for Drug Discovery” (Eur J Med Chem, 2017).

Data set [1] can be described thus: physchem. Particulars: aqueous.
Data set [2] is described as follows: in vitro. The following applies: human, liver microsomes. A general note: Liver microsomes are a subcellular fraction often used to study metabolism.
Data set [3] can be described thus: in vitro. The following applies: PAMPA, pH 7.4.
Description: Apparent permeability of the compound at pH 7.4 by PAMPA
Data set [4] in a line: in vitro. The following applies: human, liver microsomes. The source holds these as a separate data set.
Description: Half life in human liver microsomes at 1 uM in presence of NADPH by LC-MS/MS method
Data set [5] is described as follows: Apparent partition coefficient, log P of the compound in n-octanol/aqueous mixture by potentiometric titration method. The data set is classed as physicochemical.
Data set [6] in a line: physchem. Particulars: acetonitrile/water mixture.
Description: Solubility of the compound in acetonitrile/water mixture at 10 mM measured after 24 by HPLC-UV method
A short description of data set [7]: Dissociation constant, pKb of the compound in aqueous/organic mixture at pH 2 to 12 by potentiometric titration method. The following applies: buffer. The data set is classed as physicochemical.
Data set [8] in a line: Drug degradation in pH <1 HCl after 7 days by HPLC method.
A short description of data set [9]: physchem. The following applies: octanol/water, pH 10.
Data set [10] is described as follows: Drug degradation in pH >10 NH3 after 7 days by HPLC method.

Each structure is given as a SMILES string. ≈ marks a conversion by molar mass, not a printed value.

By thermodynamic solubility is commonly meant solubility found after equilibrating the solid with the medium. The term Papp denotes a coefficient for how fast a substance crosses the barrier. The half-life is the time in which the quantity being followed falls by half. The low end stands for fast loss, the high end for slow loss. By logP is commonly meant the decadic logarithm of the partition coefficient of the neutral form, usually between octanol and water. A word on the solubility: it is the dissolved amount per volume that the medium holds. As usually defined, the pKb is −log10 of the Kb, conventionally taken in molar units. In [1], `O=S1(=Nc2ccc(C(F)(F)F)cc2)CCNCC1` had a solubility (thermodynamic) of 2300 µg/mL (≈ 8260 µM). Moreover, the hepatic extraction ratio at 1 µM in data set [2] is 0.25. The same compound registered an apparent permeability (Papp) in [3] of 8.3 ×10⁻⁶ cm/s. The compound further showed a half-life at 1 µM in data set [4] of 1.83 h. Moreover, the logP in [5] turned out to be 0.9. In addition, the solubility at 10000 µM in data set [6] was over 57 µg/mL. The pKb in data set [7] turned out to be 5.2.

With `N=S1(=Nc2ccc(C(F)(F)F)cc2)CCCCC1`, the thermodynamic solubility in [1] was determined as 500 µg/mL (≈ 1810 µM). Further, the results for the Drug degradation in [8] and in [10] were 13% and under 10%, respectively. The hepatic extraction ratio at 1 µM in [2] came to 0.25. Besides, in [9], the logP came out at 1.3. The Papp in data set [3] was found to be 7.3 ×10⁻⁶ cm/s. The compound further showed a half-life at 1 µM in data set [4] of 1.83 h. Moreover, in data set [6], the solubility at 10000 µM stood at 44 µg/mL (≈ 159 µM). Also, the pKb in [7] amounted to 4.

Take `CS(C)(=O)=NC(=O)c1ccc(C(F)(F)F)cc1`: in [1], the solubility (thermodynamic) is 300 µg/mL (≈ 1130 µM). The Drug degradation is over 90% in data set [8] and under 10% in data set [10]. For the same compound, the hepatic extraction ratio at 1 µM in data set [2] amounted to 0.39. This compound also displayed a logP in data set [9] of 1.8. Moreover, the Papp in data set [3] is 11 ×10⁻⁶ cm/s. Further, the half-life at 1 µM in [4] amounted to 1.03 h. In data set [6], the solubility at 10000 µM was over 53 µg/mL.

Compound `CN=S(C)(=O)c1ccc(C(F)(F)F)cc1` (configuration not stated) came in with a thermodynamic solubility in data set [1] of 2400 µg/mL (≈ 10100 µM). In addition, the Drug degradation in data set [8] and in data set [10] was under 10% each time. Moreover, the hepatic extraction ratio at 1 µM in [2] is under 0.23. In addition, the lipophilicity (logP) in [9] is 0.1. Moreover, in data set [3], the apparent permeability coefficient (Papp) is 11 ×10⁻⁶ cm/s. The same compound gave a half-life at 1 µM in data set [4] of over 2.17 h. Further, the solubility at 10000 µM in data set [6] was over 54 µg/mL.

Turning to `O=S1(=Nc2ccncc2)CCCCC1`, in [2], the hepatic extraction ratio at 1 µM was under 0.23. The Papp in [3] is 5.7 ×10⁻⁶ cm/s. The half-life at 1 µM in [4] was over 2.17 h. Moreover, in data set [5], the logP was -2.6. Besides, in [6], the solubility at 10000 µM was 42 µg/mL (≈ 200 µM). Also, the negative logarithm of the Kb (pKb) in [7] is listed as 7.2.

With `CS(C)(=N)=NC(=O)Nc1ccc(C(F)(F)F)cc1`, in data set [1], the solubility (thermodynamic) is 500 µg/mL (≈ 1790 µM). For the same compound, the Drug degradation in data set [8] and in data set [10] was under 10% each time. In data set [9], this compound came in with a logP of 0.4. In data set [3], this compound returned a Papp of 3.3 ×10⁻⁶ cm/s. Also, the solubility at 10000 µM in data set [6] is over 68 µg/mL. Also, the pKb in data set [7] is 3.3.

In the case of `CS(C)(=O)=Nc1ccc(C(F)(F)F)cc1`, the thermodynamic solubility in data set [1] came out at 900 µg/mL (≈ 3790 µM). Also, the Drug degradation in [8] is 13%; in data set [10], 20%. The hepatic extraction ratio at 1 µM in data set [2] was under 0.23. For the same compound, the logP in data set [9] and in data set [5] was 1.4 in each case. Moreover, the Papp in data set [3] is 8.2 ×10⁻⁶ cm/s. In addition, in data set [4], the half-life at 1 µM was over 2.17 h. For the same compound, in data set [6], the solubility at 10000 µM was over 50 µg/mL.

`CS(C)(=O)=NC(=O)Nc1ccc(C(F)(F)F)cc1` yielded a solubility (thermodynamic) in data set [1] of 40 µg/mL (≈ 143 µM). Also, the Drug degradation in [8] was under 10%; in [10] it was 14%. The hepatic extraction ratio at 1 µM in data set [2] is under 0.23. In data set [9], this compound came in with a log partition coefficient (logP) of 1.6. The compound further yielded an apparent permeability (Papp) in [3] of 4.3 ×10⁻⁶ cm/s. In [4], this compound returned a half-life at 1 µM of over 2.17 h. Also, the solubility at 10000 µM in data set [6] worked out at 44 µg/mL (≈ 157 µM).

In the case of `O=S1(=Nc2cccnc2)CCCCC1`, in [2], the hepatic extraction ratio at 1 µM came to 0.82. In data set [3], this compound registered an apparent permeability coefficient (Papp) of 5.8 ×10⁻⁶ cm/s. Also, the half-life at 1 µM in data set [4] was determined as 0.133 h. Also, the logP in [5] is -2.7. In addition, in data set [6], the solubility at 10000 µM is over 75 µg/mL. Besides, the pKb in data set [7] was determined as 4.8.

`O=S1(=Nc2ccc(C(F)(F)F)cc2)CCCCC1` came in with a thermodynamic solubility in [1] of 70 µg/mL (≈ 252 µM). The Drug degradation in [8] and in data set [10] was under 10% each time. Moreover, the hepatic extraction ratio at 1 µM in data set [2] stood at 0.46. The lipophilicity (logP) in [9] and in data set [5] was 2.8 in each case. This compound also showed a Papp in data set [3] of 7.7 ×10⁻⁶ cm/s. For the same compound, the half-life at 1 µM in data set [4] was 0.767 h. The solubility at 10000 µM in [6] was 51 µg/mL (≈ 184 µM).
